Numbers after ± are expanded uncertainties.
Test: an = ratio of the nth substance listed
Details: 275 K, Pendant drop shape

| Compound | surface tension liquid-gas (a1 = 500) [mN/m] | surface tension liquid-gas (a1 = 1000) [mN/m] | surface tension liquid-gas (a1 = 2000) [mN/m] | surface tension liquid-gas (a1 = 2500) [mN/m] | surface tension liquid-gas (a1 = 3000) [mN/m] | surface tension liquid-gas (a1 = 3500) [mN/m] | surface tension liquid-gas (a1 = 4000) [mN/m] | surface tension liquid-gas (a1 = 5000) [mN/m] | surface tension liquid-gas (a2 = 0) [mN/m] |
| --- | --- | --- | --- | --- | --- | --- | --- | --- | --- |
| CCCCCCCCCCCCOS(=O)(=O)[O-].[Li+] [lithium dodecyl sulfate] + O | 56.6 ± 1.8 | 53.1 ± 1.7 | 41.2 ± 1.3 | 38.9 ± 1.2 | 37.3 ± 1.2 | 37 ± 1.2 | 36.7 ± 1.2 | 36.7 ± 1.2 | – |
| O [water] + CCCCCCCCCCCCOS(=O)(=O)[O-].[Li+] | – | – | – | – | – | – | – | – | 72.7 ± 2.3 |

— the NIST ThermoML archive (doi:10.1016/j.fluid.2011.11.011)
